What was measured:
PPARγ [1] = target: T1, PPARγ (Homo sapiens, UniProt P37231); experiment: PPARγ-dependent transactivation assay in HEK293T cells; format: cell-based; parameters: the vector pFA-PPARγ-LBD-GAL4-DBD encoding the hybrid protein PPARγ-LBD-GAL4-DBD; expressed in transfected cells; host or cells: HEK293T cells; (transient transfection); conditions: for antagonistic effects on the time-course of the response to agonist stimulation: 10 μM compound, 1 μM rosiglitazone; for inhibition of the rosiglitazone-induced transactivation of PPARγ: 1 or 10 μM compound with 0.1-10 μM rosiglitazone
T1 sequence (P37231 238-503 limits assumed): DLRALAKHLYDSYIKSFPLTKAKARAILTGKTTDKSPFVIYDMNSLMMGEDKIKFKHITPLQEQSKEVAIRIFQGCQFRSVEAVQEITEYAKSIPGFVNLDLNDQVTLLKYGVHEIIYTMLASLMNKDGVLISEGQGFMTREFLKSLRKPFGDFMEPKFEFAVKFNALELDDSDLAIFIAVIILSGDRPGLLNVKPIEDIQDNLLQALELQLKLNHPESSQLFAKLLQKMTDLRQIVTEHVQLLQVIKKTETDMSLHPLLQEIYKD
Protocol: For the PPARγ-dependent transactivation assay, 1×10^4 HEK293T cells per well were seeded in 96-well plates and cultured overnight as described above to allow attachment of the HEK293T cells. The next day, the HEK293T cells were transiently transfected using the JetPRIME™ transfection reagent (PEQLAB Biotechnologie GmbH, Erlangen, Germany), as described by the manufacturer, with 0.01 μg per well pFA-PPARγ-LBD-GAL4-DBD, kindly provided by Prof. Dr. Manfred Schubert-Zsilavecz (Institute of Pharmaceutical Chemistry, Department of Biochemistry, Chemistry and Pharmacy, Goethe-University Frankfurt am Main, Germany), 0.09 μg per well pFR-Luc (Stratagene, La Jolla, USA) and 0.0005 μg per well pRL-CMV (Promega GmbH, Mannheim, Germany). After 4 h, the transfection medium was replaced and the HEK293T cells were cultured in fresh growth medium for another 24 h. For the transient transfection of 1×10^6 HuT-78 cells and Jurkat T cells per well, the SuperFect™ transfection reagent (QIAGEN GmbH, Hilden, Germany) was used as described by the producer with 0.2 μg per well pFA-PPARγ-LBD-GAL4-DBD, 0.8 μg per well pFR-Luc and 0.05 μg per well pRL-CMV. After 24 h, 1 ml fresh growth medium was added and the cells were cultured for another 48 h. The PPARγ-dependent transactivation assay in HEK293T cells using a 96-well plate format was performed in quadruple and in HuT-78 cells and Jurkat T cells using a 12-well plate format in triplicate.
(§1) The PPARγ-dependent transactivation assay is based on the vector pFA-PPARγ-LBD-GAL4-DBD encoding the hybrid protein PPARγ-LBD-GAL4-DBD and the reporter vector pFR-Luc, carrying a GAL4-responsive element in front of the Firefly luciferase gene. These two vectors were co-transfected, as described above, in combination with the control vector pRL-CMV, encoding Renilla luciferase, to normalize Firefly luciferase activity for transfection efficiency. […] Transactivation was analysed using a 96-well plate format in a Mithras LB940 multimode reader (Berthold Technologies, Bad Wildbad, Germany). The IC50 value for MTTB was determined by fitting the data to a sigmoidal dose-response curve using the GraphPad Software Prism (La Jolla, USA).
Firefly luciferase luminescence values and control Renilla luciferase luminescence values were determined in each sample. The ratios of Firefly to Renilla luciferase luminescence were used to normalize luciferase activity values.

PPARγ [2] = target: T1, PPARγ; experiment: PPARγ-dependent transactivation assay in Jurkat T cells; format: cell-based; parameters: the vector pFA-PPARγ-LBD-GAL4-DBD encoding the hybrid protein PPARγ-LBD-GAL4-DBD; expressed in transfected cells; host or cells: HEK293T cells; Jurkat T cells (transient transfection); conditions: for inhibition of the rosiglitazone-induced transactivation of PPARγ / agonistic effects (transactivation of PPARγ by the compound alone): 24 h; for inhibition of the rosiglitazone-induced transactivation of PPARγ: 1 or 10 μM compound with 0.1-10 μM rosiglitazone
Protocol: as §1, with “Dr. […] Schubert-Zsilavecz (Institute of Pharmaceutical Chemistry, Department of Biochemistry, Chemistry and Pharmacy, Goethe-University Frankfurt am Main, Germany), 0.09 μg per well pFR-Luc (Stratagene, La Jolla, USA) and 0.0005 μg per well pRL-CMV (Promega GmbH, Mannheim, Germany). After 4 h, the transfection medium was replaced and the HEK293T cells were cultured in fresh growth medium for another 24 h. […] After 24 h, 1 ml fresh growth medium was added and the cells were cultured for another 48 h. The PPARγ-dependent transactivation assay in HEK293T cells using a 96-well plate format was performed in quadruple and in HuT-78 cells and Jurkat T cells using a 12-well plate format in triplicate. The PPARγ-dependent” for “The PPARγ-dependent”

HuT-78 cells [3] = experiment: Cell viability, MTT assay, HuT-78 cells; format: cell-based, human
Protocol: (§2) HuT-78 cells, Jurkat T cells and HEK293T cells, were seeded in 96-well plates at a density of 5×10^4 cells per well and cultured overnight as described above to allow attachment of the HEK293T cells. […] As control, DMSO alone was used. After 24 h stimulation, 3-(4, 5-dimethylthiazol-2-yl)-2, 5-diphenyltetrazolium bromide (MTT) solution (5 mg ml-1 in phosphate buffered saline (PBS)) was added and the cells were incubated for two more hours at 37° C. (Mosmann, 1983). Afterwards, the cells were lysed with MTT lysis buffer. Following cell lysis, cell viability was measured at an absorbance of 560 nm in a Mithras LB940 multimode reader. The cell viability studies using a 96-well plate format were performed in octet.

HEK293T cells [4] = experiment: Intracellular accumulation by LC-MS/MS, HEK293T cells; format: in vitro ADME, human
Source text: (§3) Accumulation was expressed as a percentage of the ratio of intracellular to extracellular concentration (I/E).

HEK293T cells [5] = experiment: Cell viability, MTT assay, HEK293T cells; format: cell-based, human; conditions: 24 h
Protocol: as §2

HuT-78 cells [6] = experiment: Intracellular accumulation by LC-MS/MS, HuT-78 cells; format: in vitro ADME, human
Source text: as §3

Jurkat T cells [7] = experiment: Intracellular accumulation by LC-MS/MS, Jurkat T cells; format: in vitro ADME
Source text: as §3

Jurkat T cells [8] = experiment: Cell viability, MTT assay, Jurkat T cells; format: cell-based
Protocol: as §2

[9] = HEK293T cells, 24 h, compound alone

## CC(C)C[C@H](NC(=O)OCC1c2ccccc2-c2ccccc21)C(=O)O [FMOC-L-leucine, N-(9-fluorenylmethoxycarbonyl)-L-leucine]
PPARγ [1]; HEK293T cells
  antagonistic effects on the time-course of the response to agonist stimulation: non-existent antagonistic effects
PPARγ [1]; [9]
  agonistic effects (transactivation of PPARγ by the compound alone): no agonistic effects

## O=C(Nc1ccccc1)c1cc([N+](=O)[O-])ccc1Cl [GW9662, 2-chloro-5-nitrobenzanilide]
PPARγ [2]
  inhibition of the rosiglitazone-induced transactivation of PPARγ: full antagonism
PPARγ [2]; compound alone
  agonistic effects (transactivation of PPARγ by the compound alone): surprisingly high agonistic effects
PPARγ [2]; compound alone, dose-independent
  PPARγ transactivation by the compound alone: approximately 3 fold
HuT-78 cells [3]; MTT, 24 h
  concentrations at which clearly cytotoxic: above 20 μM
PPARγ [1]; HEK293T cells
  antagonistic effects on the time-course of the response to agonist stimulation: inhibited the time-course of the response to agonist
PPARγ [1]; HEK293T cells, 24 h
  inhibition of the rosiglitazone-induced transactivation of PPARγ: full antagonism
PPARγ [1]; [9]
  agonistic effects (transactivation of PPARγ by the compound alone): surprisingly high agonistic effects
HEK293T cells [4]; 10 μM
  intracellular accumulation, fold lower compared to MTTB: 10 fold
HEK293T cells [5]
  concentrations without cytotoxic effects / loss of viability: ≤ 30 µM
HuT-78 cells [6]; 10 μM
  intracellular accumulation, fold less than that of MTTB: about 100 fold
Jurkat T cells [7]; 10 μM
  intracellular accumulation, fold less than that of MTTB: about 100 fold
Jurkat T cells [8]; MTT, 24 h
  concentrations at which clearly cytotoxic: > 30 µM

## O=C1NC(=O)C(Cc2ccc3cc(OCc4ccccc4F)ccc3c2)S1 (centres unmarked) [MCC-555, netoglitazone]
PPARγ [1]; HEK293T cells
  antagonistic effects on the time-course of the response to agonist stimulation: non-existent antagonistic effects
PPARγ [1]; [9]
  concentrations that transactivated PPARγ: above 1 μM

## CCCC/C(=C\c1cc(OCc2ccc3nc(C(F)(F)F)cc(OC)c3c2)ccc1OCc1ccc(C(F)(F)F)cc1)C(=O)O [MTTB, (E)-2-(5-((4-methoxy-2-(trifluoromethyl)quinolin-6-yl)methoxy)-2-((4-(trifluoromethyl)benzyl)oxy)-benzylidene) hexanoic acid]
PPARγ [2]
  inhibition of the rosiglitazone-induced transactivation of PPARγ: dose-dependent inhibition
PPARγ [2]; compound alone
  agonistic effects (transactivation of PPARγ by the compound alone): no agonistic effect
HuT-78 cells [3]
  cytotoxicity in contrast to GW9662: less cytotoxicity
HuT-78 cells [3]; MTT, 24 h
  concentrations without cytotoxic effects: up to 10 μM
PPARγ [1]
  IC50: 4.3 µM
PPARγ [1]; HEK293T cells, 24 h
  inhibition of the rosiglitazone-induced transactivation of PPARγ: dose-dependent inhibition
PPARγ [1]; [9]
  agonistic effects (transactivation of PPARγ by the compound alone): no agonistic effect
HEK293T cells [4]
  uptake, fold higher than of GW9662: 10 fold
HEK293T cells [4]; 10 μM, after 24 h
  intracellular accumulation (intracellular as percentage of extracellular concentration): approximately 25%
HEK293T cells [5]
  concentrations without cytotoxic effects / loss of viability: up to 10 μM
HuT-78 cells [6]
  intracellular accumulation, fold higher as compared to GW9662: approximately 100 fold
HuT-78 cells [6]; 10 μM, after 24 h
  intracellular accumulation (intracellular as percentage of extracellular concentration): approximately 10%
Jurkat T cells [7]
  intracellular accumulation, fold higher as compared to GW9662: approximately 100 fold
Jurkat T cells [7]; 10 μM, after 24 h
  intracellular accumulation (intracellular as percentage of extracellular concentration): approximately 10%
Jurkat T cells [8]
  cytotoxicity in contrast to GW9662: less cytotoxicity
Jurkat T cells [8]; MTT, 24 h
  concentrations without cytotoxic effects: up to 10 μM
